Like-named read-outs stand apart in the source and are kept apart here.
Legend:
[1] = test system: MDR-S. Typhimurium strains; assay: MIC and MBC by broth microdilution with resazurin; type: cell-based, Salmonella Typhimurium; settings: poultry droppings isolate
Text: (§1) The characterised MDR field strains of EAEC (E1; E2; E3), S. Enteritidis (S1; S2; S3), and S. Typhimurium (ST1; ST2; ST3) maintained in the laboratory repository of Meat Safety Laboratory of ICAR-National Research Centre on Meat, Hyderabad re-validated using PCR assays were used to evaluate the in vitro antibacterial efficacy of phytochemicals. E. coli ATCC 25922 was used as the quality control strain.
(§2) The antimicrobial efficacy of identified phytochemicals against multi-drug resistant EAEC and NTS strains was determined by estimating the minimum inhibitory concentration (MIC) and minimum bactericidal concentrations (MBC).
(§3) Subsequent to the incubation period, resazurin dye (0.015 %) was added to all the wells to determine the dye reduction (pink) and thereby the bacterial inhibition.

[2] = test system: MDR-S. Enteritidis strains; assay: Stability assay, cationic salts (MIC)
Text: (§4) To explore the utility of phytochemicals as therapeutic molecules and their stability, individual phytochemicals were exposed to cationic salts, and different pH levels followed by analysing their MIC and MBC values against test strains as described earlier.
(§5) Subsequent to exposure to varied conditions, the antimicrobial activity of the phytochemicals was estimated by determining their MIC and MBC values against all the selected MDR strains of EAEC, S. Enteritidis, and S. Typhimurium as described earlier.

Haemolytic assay = type: cell-based; settings: read-out: Haemolysis; for hemolysis at 0.5 X MIC: 0.50X MIC
Experimental: The haemolytic assay of the individual phytochemical was performed by measuring the release of haemoglobin from sheep and human ‘O’ erythrocytes at 540 nm. The percentage of haemolysis was calculated as (Asample – APBS)/ (ATriton−X – APBS) ×100, in which Asample is the absorbance of phytochemical treatment, APBS is the absorbance of untreated control with PBS, and ATriton−X is the absorbance of lysed cells treated with Triton X-100 measured at 540 nm.

[3] = test system: MDR-S. Typhimurium strains; assay: Stability assay, cationic salts (MIC)
Text: as §4, §5

[4] = test system: MDR-S. Enteritidis strains; assay: Stability assay, pH (MIC)
Text: as §4, §5

[5] = test system: MDR-S. Typhimurium strains; assay: Stability assay, pH (MIC)
Text: as §4, §5

MDR-EAEC strains [6] = assay: Stability assay, cationic salts (MIC)
Text: as §4, §5

[7] = test system: MDR-S. Enteritidis strains; assay: MIC and MBC by broth microdilution with resazurin; type: cell-based, Salmonella Enteritidis; settings: poultry droppings isolate
Text: as §1, §2, §3

MDR-EAEC strains [8] = assay: MIC and MBC by broth microdilution with resazurin; type: cell-based, enteroaggregative Escherichia coli; settings: infant diarrhoea isolate
Text: as §1, §2, §3

MDR-EAEC strains [9] = assay: Stability assay, pH (MIC)
Text: as §4, §5

[10] = human 'O' erythrocytes, Human RBCs

SMILES: Cc1ccc(C(C)C)c(O)c1 [Thymol, thymol]
- MBC ([1]; S. Typhimurium (ST1)): 0.50 µl/ml
- MIC ([1]; S. Typhimurium (ST1)): 0.25 µl/ml
- MBC ([1]; S. Typhimurium (ST2)): 0.50 µl/ml
- MIC ([1]; S. Typhimurium (ST2)): 0.25 µl/ml
- MBC ([1]; S. Typhimurium (ST3)): 0.50 µl/ml
- MIC ([1]; S. Typhimurium (ST3)): 0.06 µl/ml
- MIC with cationic salt ([2]; 2 mM MgCl2, strain S1): 0.5 µl/ml
- MIC with cationic salt ([2]; 2 mM MgCl2, strain S2): 0.5 µl/ml
- MIC with cationic salt ([2]; 2 mM MgCl2, strain S3): 0.5 µl/ml
- MIC with cationic salt ([2]; 150 mM NaCl, strain S1): 0.5 µl/ml
- MIC with cationic salt ([2]; 150 mM NaCl, strain S2): 0.5 µl/ml
- MIC with cationic salt ([2]; 150 mM NaCl, strain S3): 1.0 µl/ml
- hemolysis at 0.25 X MIC (Haemolytic assay; [10]): 1.22%
- hemolysis at 0.5 X MIC (Haemolytic assay; [10]): 1.91%
- hemolysis at 1 X MIC (Haemolytic assay; [10]): 2.86%
- hemolysis at 2 X MIC (Haemolytic assay; [10]): 13.5%
- hemolysis at 4 X MIC (Haemolytic assay; [10]): 39.4%
- hemolysis at 8 X MIC (Haemolytic assay; [10]): 48.5%
- hemolysis at 0.25 X MIC (Haemolytic assay; sheep erythrocytes, Sheep RBCs): 0%
- hemolysis at 0.5 X MIC (Haemolytic assay; sheep erythrocytes, Sheep RBCs): 0.22%
- hemolysis at 1 X MIC (Haemolytic assay; sheep erythrocytes, Sheep RBCs): 1.49%
- hemolysis at 2 X MIC (Haemolytic assay; sheep erythrocytes, Sheep RBCs): 11.4%
- hemolysis at 4 X MIC (Haemolytic assay; sheep erythrocytes, Sheep RBCs): 21.6%
- hemolysis at 8 X MIC (Haemolytic assay; sheep erythrocytes, Sheep RBCs): 47.6%
- MIC with cationic salt ([3]; 2 mM MgCl2, strain ST1): 0.5 µl/ml
- MIC with cationic salt ([3]; 2 mM MgCl2, strain ST2): 1.0 µl/ml
- MIC with cationic salt ([3]; 2 mM MgCl2, strain ST3): 0.5 µl/ml
- MIC with cationic salt ([3]; 150 mM NaCl, strain ST1): 0.5 µl/ml
- MIC with cationic salt ([3]; 150 mM NaCl, strain ST2): 0.5 µl/ml
- MIC with cationic salt ([3]; 150 mM NaCl, strain ST3): 0.5 µl/ml
- MIC at given pH ([4]; pH 4, strain S1): 0.5 µl/ml
- MIC at given pH ([4]; pH 4, strain S2): 0.5 µl/ml
- MIC at given pH ([4]; pH 4, strain S3): 0.5 µl/ml
- MIC at given pH ([4]; pH 6, strain S1): 0.5 µl/ml
- MIC at given pH ([4]; pH 6, strain S2): 0.5 µl/ml
- MIC at given pH ([4]; pH 6, strain S3): 0.5 µl/ml
- MIC at given pH ([4]; pH 8, strain S1): 0.5 µl/ml
- MIC at given pH ([4]; pH 8, strain S2): 1.0 µl/ml
- MIC at given pH ([4]; pH 8, strain S3): 0.5 µl/ml
- MIC at given pH ([5]; pH 4, strain ST1): 0.5 µl/ml
- MIC at given pH ([5]; pH 4, strain ST2): 0.5 µl/ml
- MIC at given pH ([5]; pH 4, strain ST3): 0.5 µl/ml
- MIC at given pH ([5]; pH 6, strain ST1): 0.5 µl/ml
- MIC at given pH ([5]; pH 6, strain ST2): 1.0 µl/ml
- MIC at given pH ([5]; pH 6, strain ST3): 0.5 µl/ml
- MIC at given pH ([5]; pH 8, strain ST1): 0.5 µl/ml
- MIC at given pH ([5]; pH 8, strain ST2): 1.0 µl/ml
- MIC at given pH ([5]; pH 8, strain ST3): 1.0 µl/ml
- MIC with cationic salt (MDR-EAEC strains [6]; 2 mM MgCl2, strain E1): 0.25 µl/ml
- MIC with cationic salt (MDR-EAEC strains [6]; 2 mM MgCl2, strain E2): 0.25 µl/ml
- MIC with cationic salt (MDR-EAEC strains [6]; 2 mM MgCl2, strain E3): 0.25 µl/ml
- Change of MIC values with cationic salts (MDR-EAEC strains [6]; 150 mM NaCl and 2 mM MgCl2, MDR-EAEC strains): remained almost similar
- MIC with cationic salt (MDR-EAEC strains [6]; 150 mM NaCl, strain E1): 0.25 µl/ml
- MIC with cationic salt (MDR-EAEC strains [6]; 150 mM NaCl, strain E2): 0.25 µl/ml
- MIC with cationic salt (MDR-EAEC strains [6]; 150 mM NaCl, strain E3): 0.25 µl/ml
- MBC ([7]; S. Enteritidis (S1)): 0.50 µl/ml
- MIC ([7]; S. Enteritidis (S1)): 0.12 µl/ml
- MBC ([7]; S. Enteritidis (S2)): 0.50 µl/ml
- MIC ([7]; S. Enteritidis (S2)): 0.25 µl/ml
- MBC ([7]; S. Enteritidis (S3)): 0.50 µl/ml
- MIC ([7]; S. Enteritidis (S3)): 0.25 µl/ml
- MBC (MDR-EAEC strains [8]; EAEC (E1)): 0.25 µl/ml
- MIC (MDR-EAEC strains [8]; EAEC (E1)): 0.25 µl/ml
- MBC (MDR-EAEC strains [8]; EAEC (E2)): 0.50 µl/ml
- MIC (MDR-EAEC strains [8]; EAEC (E2)): 0.25 µl/ml
- MBC (MDR-EAEC strains [8]; EAEC (E3)): 0.25 µl/ml
- MIC (MDR-EAEC strains [8]; EAEC (E3)): 0.25 µl/ml
- MIC at given pH (MDR-EAEC strains [9]; pH 4, strain E1): 0.25 µl/ml
- MIC at given pH (MDR-EAEC strains [9]; pH 4, strain E2): 0.25 µl/ml
- MIC at given pH (MDR-EAEC strains [9]; pH 4, strain E3): 0.25 µl/ml
- MIC at given pH (MDR-EAEC strains [9]; pH 6, strain E1): 0.25 µl/ml
- MIC at given pH (MDR-EAEC strains [9]; pH 6, strain E2): 0.25 µl/ml
- MIC at given pH (MDR-EAEC strains [9]; pH 6, strain E3): 0.25 µl/ml
- MIC at given pH (MDR-EAEC strains [9]; pH 8, strain E1): 0.5 µl/ml
- MIC at given pH (MDR-EAEC strains [9]; pH 8, strain E2): 0.25 µl/ml
- MIC at given pH (MDR-EAEC strains [9]; pH 8, strain E3): 0.5 µl/ml
